Measurements published in patent US11241441B2, “Formulations of lixivaptan for the treatment of polycystic disease” (PALLADIO BIOSCIENCES, INC., priority 2017, dated 2022).

Experiments:
V2 receptor [1] = target: T1, V2 receptor (Homo sapiens, UniProt P30518); assay: Ascending multiple-dose, safety and tolerance study in healthy adult male subjects
Procedure: Lixivaptan in healthy volunteers was tested in a randomized, double-blind, placebo-controlled, ascending multiple-dose, safety and tolerance clinical study in 98 healthy male subjects.

Measured Log P = assay type: physicochemical
[2] = In-clinic pharmacokinetic study: adverse events, serum osmolality, urine output; assay type: in vivo, human
Procedure: Subjects received lixivaptan at total daily doses of 100 mg, 200 mg, or 400 mg (administered as 50, 100, and 200 mg Q12H). Subjects were to be enrolled into the study in two cohorts of 30 subjects, but actual cohort numbers were 23 and 34 subjects. Of the 57 subjects enrolled in the study, 27 were female (47.4%) and 30 were male (52.6%). The majority of subjects were White (35/57, 61.4%) and of Hispanic or Latino ethnicity (46/57, 80.7%). The overall mean age of subjects in the study was 33.6 (8.31) years, and the overall mean body mass index for subjects was 26.2 (3.79). There were to be approximately 20 subjects enrolled per dose level. An approximately equal number of males and females were enrolled at each dose level such that neither gender was represented by fewer than 8 subjects. The starting date for each cohort subjects was staggered by 7 days for logistical purposes. Screening evaluations were performed within 28 days prior to Day 1.
The following doses of lixivaptan were administered to subjects in this study: (a) Lixivaptan 100 mg, administered as 50 mg [1×50 mg capsule] every 12 hours×15 doses; (b) lixivaptan 200 mg, administered as 100 mg [2×50 mg capsules] every 12 hours×15 doses; and (c) Lixivaptan 400 mg, administered as 200 mg [4×50 mg capsules] every 12 hours×15 doses.
Prior to the morning doses of lixivaptan on Days 1 and 8, subjects fasted for approximately 10 hours prior to lixivaptan administration and 4 hours after lixivaptan administration. All other doses were administered under fasting conditions, either 2 hours before or 2 hours after meals. The study medication was administered with 240 milliliters (mL) room temperature water. Subjects were not to receive any oral fluids, other than those used to administer the dose, for 1 hour before and 1 hour after dose administration. Subjects remained sitting or semi-supine, except to void, for 6 hours following the first two doses. While in the clinic, the subjects refrained from strenuous physical activity.

cAMP = assay: Cyclic AMP content of whole kidneys of PCK rats (Direct cAMP ELISA); assay type: in vivo, rat; conditions: for cAMP: whole kidney
Procedure: Experimental animals and study design. PCK rats were divided into control and treatment groups at four weeks of age (n=59, ˜10 animals per treatment group and gender). Lixivaptan was dissolved in DMSO and added to ground rodent chow (Regrind Labdiet 5053) at 0.5% or 1.0% concentration (w/w) by homogenous mixing, whereas control animals received the same diet without lixivaptan. Animals were exposed to control- or lixivaptan-diet for eight weeks and were sacrificed at twelve weeks of age.
Experimental Protocol. Twenty-four hour urine outputs in metabolic cages were collected twice at 6 and 9 weeks of age (Study week 3 and 6, respectively). At the end of the dosing period, the animals were weighed and anesthetized with ketamine 90 mg/kg and xylazine 10 mg/kg, IP. Blood samples were obtained by cardiac puncture for determination of plasma electrolytes, creatinine and plasma urea levels. The right kidney and part of the liver were placed into pre-weighed vials containing 10% formaldehyde in phosphate buffer (pH 7.4). The tissues were embedded in paraffin for histological studies. The left kidneys were immediately frozen in liquid nitrogen for determination of cAMP.
The kidneys were weighed and ground to fine powder under liquid nitrogen in a stainless steel mortar and homogenized in 10 volumes of 0.1M HCl. The protein concentration was measured by using BCA Protein Assay Kit (Pierce, Ill.). After centrifugation at 600 g for 10 min, the supernatant was further diluted in 0.1M HCl and run directly in the assay or stored frozen for later analysis. The cAMP content was assessed by Direct cAMP ELISA kit, according to the manufacturer's instructions (Enzo Life Sciences, Inc. Farmingdale, N.Y.). Samples were taken in triplicate. The results were expressed in pmol/mg of protein.

V2 receptor [3] = target: T1, V2 receptor; assay: Single 100 mg oral dose study in ESRD and normal renal function subjects: pharmacodynamics (urine osmolality, vasopressin, urine output); assay type: in vivo; set-up: Lixivaptan antagonizes the effects of vasopressin that are mediated by the V2 receptor; from tissue; host or cells: living human subjects (in vivo clinical studies); the receptor is the subjects' own and no tissue was isolated
Procedure: In this study, the PK of lixivaptan following a single 100 mg oral dose of lixivaptan was evaluated in subjects with end-stage renal disease (ESRD) and control subjects with normal renal function. Pharmacodynamic (PD) evaluations, including vasopressin concentration, serum sodium concentration, urine volume, and urine osmolality were assessed.

T1 sequence (P30518 whole entry): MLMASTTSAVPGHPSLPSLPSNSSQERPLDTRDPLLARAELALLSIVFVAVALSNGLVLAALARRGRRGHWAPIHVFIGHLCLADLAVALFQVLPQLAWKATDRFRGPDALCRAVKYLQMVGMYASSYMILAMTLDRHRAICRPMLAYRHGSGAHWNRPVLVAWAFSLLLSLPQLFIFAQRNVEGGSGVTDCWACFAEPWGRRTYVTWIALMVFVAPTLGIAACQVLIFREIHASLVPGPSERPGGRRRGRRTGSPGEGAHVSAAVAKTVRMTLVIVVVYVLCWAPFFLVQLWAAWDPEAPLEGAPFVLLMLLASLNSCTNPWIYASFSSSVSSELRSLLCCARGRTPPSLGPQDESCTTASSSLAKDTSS

## Cc1ccc(F)cc1C(=O)Nc1ccc(C(=O)N2Cc3cccn3Cc3ccccc32)c(Cl)c1 [Lixivaptan, 5-fluoro-2-methyl-N-[4-(5H-pyrrolo[2,1-C] [1,4]benzodiazepin-10(11H)-ylcarbonyl)-3-chlorophenyl]benzamide]
V2 receptor [1]; 300 mg to 800 mg doses (FIG. 3)
  maintenance of urine osmolality below 300 mOsm/kg: up to 12 hours
V2 receptor [1]; 800 mg dose only
  suppression of Uosm to values <300 mOsm/kg: up to 24 hours
V2 receptor [1]; 100-mg dose
  time Uosm remained below iso-osmolar point: 4 h
V2 receptor [1]; across all dose groups
  time of minimal values of Uosm after drug administration: ≤ 2 h
V2 receptor [1]; all subjects given lixivaptan
  serum osmolality: significant dose-related increases
V2 receptor [1]; daily oral doses up to 800 mg, twice daily up to 400 mg, 14 consecutive days, healthy men
  safety and tolerability: safe and well tolerated
V2 receptor [1]; doses of 25 mg and higher
  minimal values of Uosm: < 300 mOsm/L
V2 receptor [1]; doses of 200 mg or larger, across 14 days, vs placebo
  urine output, 0-to-24-hour collection interval: significantly greater urine output than placebo
V2 receptor [1]; single dose of 25 mg or higher, vs placebo
  urine output, first 4 hours after drug administration: significantly greater urine output than placebo
V2 receptor [1]; single doses of 25 mg and higher (day 1)
  Uvol (0-to-4-hours): doubling
Measured Log P
  logP: 1
[2]; 100 mg group
  headache considered possibly or probably related to study drug: 2 subject
[2]; 200 mg group
  headache considered possibly or probably related to study drug: 1 subject
[2]; 400 mg group
  asthenia considered possibly or probably related to study drug: 1 subject
  headache considered possibly or probably related to study drug: 1 subject
  vomiting considered possibly or probably related to study drug: 1 subject
[2]; Days 1-8
  urine output: increased
[2]; during the study, dose related
  serum osmolality: mildly increased
[2]; healthy subjects, 50-200 mg Q12H for 7.5 days
  tolerability: well tolerated
[2]; of the 57 enrolled subjects
  treatment-emergent AE chest discomfort: 2 subjects
  treatment-emergent AE constipation: 3 subjects
  treatment-emergent AE headache: 7 subjects
cAMP; PCK rats, 0.5% lixivaptan, compared to control
  reduction in kidney cAMP levels: 23%
cAMP; PCK rats F, 0.5% Lixivaptan
  cAMP: 15.0 ± 4.6 pmol/mg protein
cAMP; PCK rats F, 1.0% Lixivaptan
  cAMP: 23.6 ± 8.1 pmol/mg protein
cAMP; PCK rats M, 0.5% Lixivaptan
  cAMP: 16.5 ± 5.1 pmol/mg protein
cAMP; PCK rats M, 1.0% Lixivaptan
  cAMP: 24.0 ± 12.0 pmol/mg protein
V2 receptor [3]; 0 to 2 hours postdose, ESRD
  Urine osmolality Change from baseline Mean: −109.0 mosmol/kg
V2 receptor [3]; 0 to 2 hours postdose, ESRD, single 100 mg oral dose
  Urine osmolality Observed Mean: 216.5 mosmol/kg
V2 receptor [3]; 0 to 2 hours postdose, Normal
  Urine osmolality Change from baseline Mean: −398.5 mosmol/kg
V2 receptor [3]; 0 to 2 hours postdose, Normal, single 100 mg oral dose
  Urine osmolality Observed Mean: 132.6 mosmol/kg
V2 receptor [3]; 2 to 4 hours postdose, ESRD
  Urine osmolality Change from baseline Mean: −108.7 mosmol/kg
  Urine osmolality Observed Mean: 202.4 mosmol/kg
V2 receptor [3]; 2 to 4 hours postdose, Normal
  Urine osmolality Change from baseline Mean: −412.6 mosmol/kg
  Urine osmolality Observed Mean: 109.9 mosmol/kg
V2 receptor [3]; 4 to 8 hours postdose, ESRD
  Urine osmolality Change from baseline Mean: −118.3 mosmol/kg
  Urine osmolality Observed Mean: 195.1 mosmol/kg
V2 receptor [3]; 4 to 8 hours postdose, Normal
  Urine osmolality Change from baseline Mean: −258.3 mosmol/kg
  Urine osmolality Observed Mean: 272.8 mosmol/kg
V2 receptor [3]; ESRD group
  effect on change from baseline in urine osmolality: markedly reduced
V2 receptor [3]; Predose, ESRD
  Urine osmolality Observed Mean: 311.1 mosmol/kg
V2 receptor [3]; Predose, Normal
  Urine osmolality Observed Mean: 514.7 mosmol/kg
V2 receptor [3]; both renal function groups
  vasopressin levels: elevations of vasopressin levels
V2 receptor [3]; normal group
  urine output: increased urine output
